Results reported in US20220315558A1, “POLYMORPHS OF 1-(2-((((TRANS)-3-FLUORO-1-(3-FLUOROPYRIDIN-2-YL)CYCLOBUTYL)METHYL)AMINO)PYRIMIDIN-5-YL)-1H-PYRROLE-3-CARBOXAMIDE” (Cytokinetics, Inc., priority 2019, published 2022).

Key:
Assay type in all cases: physicochemical
[1] = Gravimetric Vapour Sorption (GVS) moisture sorption isotherm; details: over 0-90% RH range, 25° C.
Procedure: GVS data were collected using a SMS DVS Intrinsic moisture sorption analyser, controlled by DVS Intrinsic Control software v1.0.0.30. The sample temperature was maintained at 25° C. by the instrument controls. The humidity was controlled by mixing streams of dry and wet nitrogen, with a total flow rate of 200 ml/min The relative humidity was measured by a calibrated Rotronic probe (dynamic range of 1.0-100% RH), located near the sample. The weight change, (mass relaxation) of the sample as a function of % RH was constantly monitored by the microbalance (accuracy ±0.005 mg).
Typically 5-20 mg of sample was placed in a tared mesh stainless steel basket under ambient conditions. The sample was loaded and unloaded at 40% RH and 25° C. (typical room conditions). A moisture sorption isotherm was performed as outlined below (2 scans giving 1 complete cycle). The standard isotherm was performed at 25° C. at 10% RH intervals over a 0-90% RH range. Data analysis was undertaken in Microsoft Excel using DVS Analysis Suite v6.0.

[2] = XRPD analysis after heating at 150° C.
Procedure: Polymorphic Form II of 1-(2-((((trans)-3-fluoro-1-(3-fluoropyridin-2-yl)cyclobutyl)methyl)amino)pyrimidin-5-yl)-1H-pyrrole-3-carboxamide was analyzed by XRPD, DSC, TGA, and GVS.

[3] = Storage stability for 7 days at controlled temperature/RH, checked by XRPD
Procedure: Ray Powder Diffraction patterns were collected on a Bruker D8 diffractometer using Cu Kα radiation (40 kV, 40 mA), θ-2θ goniometer, and divergence of V4 and receiving slits, a Ge monochromator and a Lynxeye detector. The instrument is performance checked using a certified Corundum standard (NIST 1976). The software used for data collection was Diffrac Plus XRD Commander v2.6.1 and the data were analysed and presented using Diffrac Plus EVA v13.0.0.2 or v15.0.0.0.
Samples were run under ambient conditions as flat plate specimens using powder as received. The sample was gently packed into a cavity cut into polished, zero-background (510) silicon wafer. The sample was rotated in its own plane during analysis. The details of the data collection are: • Angular range: 2 to 42° 2θ • Step size: 0.05° 2θ • Collection time: 0.5 s/step
Polymorphic Form I of 1-(2-((((trans)-3-fluoro-1-(3-fluoropyridin-2-yl)cyclobutyl)methyl)amino)pyrimidin-5-yl)-1H-pyrrole-3-carboxamide was analyzed by XRPD, DSC, TGA, and GVS. […] Chemical stability study of Form I was also performed. XRPD patterns were measured after storage of samples of Form I for 7 days at 40° C./75% RH and 25° C./97% RH.

[4] = Solubility of Form I in solvents at 50° C. (polymorph screening); parameters: key: ✓ YES; x NO
Procedure: Polymorphic Form I of 1-(2-((((trans)-3-fluoro-1-(3-fluoropyridin-2-yl)cyclobutyl)methyl)amino)pyrimidin-5-yl)-1H-pyrrole-3-carboxamide was weighed into vials, and the stated solvents were added, in increasing portions, at 50° C. With each addition, the vials were allowed to shake for ˜20 minutes. After the last addition, any suspensions observed were subjected to heat/cool cycles, between room temperature and 50° C., 4 hours at each condition, for 1 week. Solutions were allowed to slowly evaporate.
Aliquots were filtered by suction after 7 days maturation and analysed by XRPD (low resolution, air-dried only). Most solutions yielded solids after 9 days and these were analyzed by XRPD as well.

[5] = Competitive slurry experiments between Form I and Form II; details: methanol, constant temperature 4 to 60° C., 12 days, XRPD
Procedure: (§1) A mechanical mixture of Form I and Form II was prepared. This mixture was analyzed by XRPD for reference. The mixture (ca. 25 mg) was suspended in methanol, and parallel maturation experiments were set up at a constant temperature, in the range of 4 to 60° C., for a total of 12 days. The resulting solids were filtered and analyzed by XRPD.

[6] = Competitive slurry experiments between Form I and Form IV; details: as Example 3 (methanol, 4 to 60° C.), 12 days, XRPD
Procedure: as §1
Competitive slurry experiments between Form I and Form IV were conducted in a manner similar to that described in Example 3.

NC(=O)c1ccn(-c2cnc(NC[C@]3(c4ncccc4F)C[C@H](F)C3)nc2)c1 [Form II, 1-(2-((((trans)-3-fluoro-1-(3-fluoropyridin-2-yl)cyclobutyl)methyl)amino)pyrimidin-5-yl)-1H-pyrrole-3-carboxamide]
moisture uptake as determined by GVS [1]: about 1.65% | solid form by XRPD after heating [2]: converted to Form I

NC(=O)c1ccn(-c2cnc(NC[C@]3(c4ncccc4F)C[C@H](F)C3)nc2)c1 [Form I, 1-(2-((((trans)-3-fluoro-1-(3-fluoropyridin-2-yl)cyclobutyl)methyl)amino)pyrimidin-5-yl)-1H-pyrrole-3-carboxamide]
moisture uptake as determined by GVS [1]: less than 0.07% | changes in XRPD pattern after storage ([3]; 7 days at 25° C./97% RH): No visible changes | changes in XRPD pattern after storage ([3]; 7 days at 40° C./75% RH): No visible changes | Solubility (volumes) (✓ YES; x NO) at 50° C. ([4]; 1,4-Dioxane, 10 volumes): x | Solubility (volumes) (✓ YES; x NO) at 50° C. ([4]; 1,4-Dioxane, 25 volumes): x | Solubility (volumes) (✓ YES; x NO) at 50° C. ([4]; 1,4-Dioxane, 50 volumes): x | Solubility (volumes) (✓ YES; x NO) at 50° C. ([4]; 1-Butanol, 10 volumes): x | Solubility (volumes) (✓ YES; x NO) at 50° C. ([4]; 1-Butanol, 25 volumes): x | Solubility (volumes) (✓ YES; x NO) at 50° C. ([4]; 1-Butanol, 50 volumes): x | Solubility (volumes) (✓ YES; x NO) at 50° C. ([4]; 1-Propanol, 10 volumes): x | Solubility (volumes) (✓ YES; x NO) at 50° C. ([4]; 1-Propanol, 25 volumes): x | Solubility (volumes) (✓ YES; x NO) at 50° C. ([4]; 1-Propanol, 50 volumes): x | Solubility (volumes) (✓ YES; x NO) at 50° C. ([4]; 2-Propanol, 10 volumes): x | Solubility (volumes) (✓ YES; x NO) at 50° C. ([4]; 2-Propanol, 25 volumes): x | Solubility (volumes) (✓ YES; x NO) at 50° C. ([4]; 2-Propanol, 50 volumes): x | Solubility (volumes) (✓ YES; x NO) at 50° C. ([4]; Acetone, 10 volumes): x | Solubility (volumes) (✓ YES; x NO) at 50° C. ([4]; Acetone, 25 volumes): x | Solubility (volumes) (✓ YES; x NO) at 50° C. ([4]; Acetone, 50 volumes): x | Solubility (volumes) (✓ YES; x NO) at 50° C. ([4]; Acetonitrile, 10 volumes): ✓ | Solubility (volumes) (✓ YES; x NO) at 50° C. ([4]; Anisole, 10 volumes): x | Solubility (volumes) (✓ YES; x NO) at 50° C. ([4]; Anisole, 25 volumes): x | Solubility (volumes) (✓ YES; x NO) at 50° C. ([4]; Anisole, 50 volumes): x | Solubility (volumes) (✓ YES; x NO) at 50° C. ([4]; Butyl acetate (BuOAc), 10 volumes): x | Solubility (volumes) (✓ YES; x NO) at 50° C. ([4]; Butyl acetate (BuOAc), 25 volumes): x | Solubility (volumes) (✓ YES; x NO) at 50° C. ([4]; Butyl acetate (BuOAc), 50 volumes): x | Solubility (volumes) (✓ YES; x NO) at 50° C. ([4]; Dichloromethane (DCM), 10 volumes): x | Solubility (volumes) (✓ YES; x NO) at 50° C. ([4]; Dichloromethane (DCM), 25 volumes): x | Solubility (volumes) (✓ YES; x NO) at 50° C. ([4]; Dichloromethane (DCM), 50 volumes): x | Solubility (volumes) (✓ YES; x NO) at 50° C. ([4]; Dioxane/5% water, 10 volumes): x | Solubility (volumes) (✓ YES; x NO) at 50° C. ([4]; Dioxane/5% water, 25 volumes): x | Solubility (volumes) (✓ YES; x NO) at 50° C. ([4]; Dioxane/5% water, 50 volumes): ✓ | Solubility (volumes) (✓ YES; x NO) at 50° C. ([4]; Ethanol, 10 volumes): x | Solubility (volumes) (✓ YES; x NO) at 50° C. ([4]; Ethanol, 25 volumes): x | Solubility (volumes) (✓ YES; x NO) at 50° C. ([4]; Ethanol, 50 volumes): x | Solubility (volumes) (✓ YES; x NO) at 50° C. ([4]; Ethanol/5% water, 10 volumes): x | Solubility (volumes) (✓ YES; x NO) at 50° C. ([4]; Ethanol/5% water, 25 volumes): x | Solubility (volumes) (✓ YES; x NO) at 50° C. ([4]; Ethanol/5% water, 50 volumes): x | Solubility (volumes) (✓ YES; x NO) at 50° C. ([4]; Ethyl acetate, 10 volumes): x | Solubility (volumes) (✓ YES; x NO) at 50° C. ([4]; Ethyl acetate, 25 volumes): x | Solubility (volumes) (✓ YES; x NO) at 50° C. ([4]; Ethyl acetate, 50 volumes): x | Solubility (volumes) (✓ YES; x NO) at 50° C. ([4]; Heptane, 10 volumes): x | Solubility (volumes) (✓ YES; x NO) at 50° C. ([4]; Heptane, 25 volumes): x | Solubility (volumes) (✓ YES; x NO) at 50° C. ([4]; Heptane, 50 volumes): x | Solubility (volumes) (✓ YES; x NO) at 50° C. ([4]; Isopropanol (IPA)/5% water, 10 volumes): x | Solubility (volumes) (✓ YES; x NO) at 50° C. ([4]; Isopropanol (IPA)/5% water, 25 volumes): x | Solubility (volumes) (✓ YES; x NO) at 50° C. ([4]; Isopropanol (IPA)/5% water, 50 volumes): x | Solubility (volumes) (✓ YES; x NO) at 50° C. ([4]; Isopropyl acetate (IPAc), 10 volumes): x | Solubility (volumes) (✓ YES; x NO) at 50° C. ([4]; Isopropyl acetate (IPAc), 25 volumes): x | Solubility (volumes) (✓ YES; x NO) at 50° C. ([4]; Isopropyl acetate (IPAc), 50 volumes): x | Solubility (volumes) (✓ YES; x NO) at 50° C. ([4]; Methanol, 10 volumes): x | Solubility (volumes) (✓ YES; x NO) at 50° C. ([4]; Methanol, 25 volumes): x | Solubility (volumes) (✓ YES; x NO) at 50° C. ([4]; Methanol, 50 volumes): x | Solubility (volumes) (✓ YES; x NO) at 50° C. ([4]; Methyl ethyl ketone (MEK), 10 volumes): x | Solubility (volumes) (✓ YES; x NO) at 50° C. ([4]; Methyl ethyl ketone (MEK), 25 volumes): x | Solubility (volumes) (✓ YES; x NO) at 50° C. ([4]; Methyl ethyl ketone (MEK), 50 volumes): x | Solubility (volumes) (✓ YES; x NO) at 50° C. ([4]; Methyl isobutyl ketone (MIBK), 10 volumes): x | Solubility (volumes) (✓ YES; x NO) at 50° C. ([4]; Methyl isobutyl ketone (MIBK), 25 volumes): x | Solubility (volumes) (✓ YES; x NO) at 50° C. ([4]; Methyl isobutyl ketone (MIBK), 50 volumes): x | Solubility (volumes) (✓ YES; x NO) at 50° C. ([4]; Nitromethane, 10 volumes): x | Solubility (volumes) (✓ YES; x NO) at 50° C. ([4]; Nitromethane, 25 volumes): x | Solubility (volumes) (✓ YES; x NO) at 50° C. ([4]; Nitromethane, 50 volumes): x | Solubility (volumes) (✓ YES; x NO) at 50° C. ([4]; THF/5% water, 10 volumes): x | Solubility (volumes) (✓ YES; x NO) at 50° C. ([4]; THF/5% water, 25 volumes): Cloudy | Solubility (volumes) (✓ YES; x NO) at 50° C. ([4]; THF/5% water, 50 volumes): ✓ | Solubility (volumes) (✓ YES; x NO) at 50° C. ([4]; Tert-butyl methyl ether (TBME), 10 volumes): x | Solubility (volumes) (✓ YES; x NO) at 50° C. ([4]; Tert-butyl methyl ether (TBME), 25 volumes): x | Solubility (volumes) (✓ YES; x NO) at 50° C. ([4]; Tert-butyl methyl ether (TBME), 50 volumes): x | Solubility (volumes) (✓ YES; x NO) at 50° C. ([4]; Tetrahydrofuran (THF), 10 volumes): x | Solubility (volumes) (✓ YES; x NO) at 50° C. ([4]; Tetrahydrofuran (THF), 25 volumes): x | Solubility (volumes) (✓ YES; x NO) at 50° C. ([4]; Tetrahydrofuran (THF), 50 volumes): x | Solubility (volumes) (✓ YES; x NO) at 50° C. ([4]; Toluene, 10 volumes): x | Solubility (volumes) (✓ YES; x NO) at 50° C. ([4]; Toluene, 25 volumes): x | Solubility (volumes) (✓ YES; x NO) at 50° C. ([4]; Toluene, 50 volumes): x | Solubility (volumes) (✓ YES; x NO) at 50° C. ([4]; Water, 10 volumes): x | Solubility (volumes) (✓ YES; x NO) at 50° C. ([4]; Water, 25 volumes): x | Solubility (volumes) (✓ YES; x NO) at 50° C. ([4]; Water, 50 volumes): x | relative stability versus Form II (competitive slurry) [5]: more stable | relative stability versus Form IV (competitive slurry) [6]: more stable
